According to patent US8791084B2, “Inhibition of SOX9 function in the treatment of proteoglycan-associated pathophysiological conditions” (Robarts Research Institute, priority 2006, dated 2014):

What was measured:
SOX9 [1] = test: SOX9 knock-down by anti-SOX9 siRNA transfection of primary astrocytes, mRNA levels by Q-PCR; type: cell-based, rat
Experimental: (§1) Primary astrocyte cultures were prepared from newborn rats at postnatal day 1 (P1) (Wilson and Dixon 1989). The upper portion of the skull was removed and the meninges carefully dissected away to avoid contamination of the culture with fibroblasts. The neocortices were removed, placed into serum-free advanced D-MEM (Dulbecco's Modified Eagle Medium, Invitrogen), homogenized by pipeting and gravity-filtered through 70 μm cell strainer (Falcon). The cells were plated onto 6-well dishes (Falcon). […] Cytokine treatments of primary astrocytes with PDGF, IL-6, TNFα and TGFβ2 (R and D systems) and bFGF2 (Invitrogen) were carried out for 12 hours. RNA was extracted using the Qiagen (Germany) RNA-easy kit following manufacturer's specifications. The transfections of primary astrocytes with SiRNAs and the CMV-SOX9 expression construct were conducted using Lipofectamine 2000 (Invitrogen) according to manufacturer's specifications in 6-well dishes (Falcon). The siRNA ([…]) (SEQ ID No. 4) was used at a concentration of 150 pM. The universal negative control scrambled SiRNA was used according to manufacturer's (Invitrogen) specifications. Transfection efficiencies with a fluorescently-tagged control SiRNA was 35%-40%. The CMV-SOX9 construct has previously been described (Foster et al. 1994; Lefebvre et al. 1997) and plasmid transfection efficiency estimated by cotransfection with a CMV-GFP construct was approximately 10%.
(§2) First strand cDNA was synthesized from 1 μg RNA per condition (cell culture or animal tissue) using the High Capacity cDNA Archive Kit according to the manufacturer protocol (Applied Biosystems Foster City Calif.). The primer probe sets, optical adhesive covers, and PCR plates were purchased from Applied Biosystems (Foster City, Calif.). The probes were labeled with 5′ FAM and with 3′TAMRA as quencher with the exception of the ribosomal probe, which was labeled with 5′ VIC. For Taq Man assays the thermal cycler conditions were 10 minutes at 95° C. followed by 40 cycles of 30 seconds at 95° C. followed by 30 seconds at 60° C. A standard curve of cycle thresholds using cDNA serial dilutions was established and used to calculate abundance of each target mRNA. Technical triplicates and at least biological triplicates were run on all conditions tested. Values were normalized to the amounts of 18S mRNA as determined by Q-PCR. The data were analyzed by a two way ANOVA following by a Bonferroni test with Dunn's correction for multiple comparisons or Dunnet's procedure when comparisons were made with a single variable (control). Student's t-test was used when only two groups were compared.
To test the effect of SOX9 knock-down on the expression of XT-I, XT-II and C4ST, a control (scrambled) small interfering RNA (SiRNA) or an anti-SOX9 SiRNA was transfected into primary astrocytes and mRNA levels of SOX9, XT-I, XT-II and C4ST were assayed by Q-PCR 12 hours later. […] (FIG. 7 E, F).

[2] = system: rat primary astrocyte cultures; test: Slot blot analysis of CSPG protein (CS56) in cytokine-treated primary astrocytes; type: cell-based
Experimental: as §1
Tissue and cell samples were lysed in RIPA buffer [20 mM, Tris-HCl (pH 7.6), 150 mM NaCl, 0.5% sodium deoxycholate, 1% Triton X-100, 0.1% SDS]. […] Immunoreactive bands were scanned by an imaging densitometer (BioRad GF-700 Imaging Densitometer, Mississauga, ON); and results were quantified using Multi-Analist software (BioRad, Mississauga, ON). […]
To evaluate TGFβ2, PDGF and IL-6 as candidate XT-I, XT-II and C4ST transcriptional regulators, rat primary astrocyte cultures were exposed to 1, 10 or 100 ng/ml of each cytokine. After a 12 hour cytokine exposure, XT-I, XT-II and C4ST mRNA levels were measured relative to untreated cultures by Q-PCR. […]

[3] = system: rat primary astrocyte cultures; test: Cytokine treatment of primary astrocyte cultures, mRNA levels by Q-PCR; type: cell-based; conditions: for XT-II mRNA: 6 week-old primary astrocyte cultures, 1, 10 or 100 ng/ml cytokine, 12 hour exposure, relative to untreated cultures; for SOX9 mRNA levels: primary astrocyte cultures after cytokine treatments; for Fibronectin expression / Laminin expression: primary astrocyte cultures following cytokine treatments
Experimental: as §1, §2
To evaluate TGFβ2, PDGF and IL-6 as candidate XT-I, XT-II and C4ST transcriptional regulators, rat primary astrocyte cultures were exposed to 1, 10 or 100 ng/ml of each cytokine. After a 12 hour cytokine exposure, XT-I, XT-II and C4ST mRNA levels were measured relative to untreated cultures by Q-PCR. Six week-old cultures were used as, by this time point, the astrocytes are quiescent (as evidenced by reduced GFAP expression) and baseline levels of XT-I, XT-II and C4ST genes are low.
To test whether SOX9 regulates expression of XT-I, XT-II and C4ST in vitro, primary astrocytes were transfected with a SOX9 expression construct and assessed for CBG mRNA levels by Q-PCR 48 hours later. […] The levels of fibronectin and laminin mRNA in these same cultures were unaffected by SOX9 over-expression. To determine whether IL-6, PDGF and TGF[…]2 might increase XT-I, XT-II and C4ST gene expression by up-regulating SOX9 expression, the expression levels of SOX9 mRNA were assayed after these cytokine treatments in primary astrocyte cultures.

SOX9 [4] = test: SOX9 luciferase reporter construct assay in primary astrocytes; type: cell-based, rat
Excerpt: Astrocytes, such as wither primary astrocytes (rodent or human) or an established astrocyte cell line designated as Neu7 (Fok-Seang, Smith-Thomas et al. 1995), were transfected with a SOX9 reporter construct under standard conditions. The SOX9 reporter construct (a gift from Dr. Michael Underhill, University of British Columbia) has 4 repeats of the SOX9 binding site coupled to the mouse Col2a1 minimal promoter (−89 to +6) cloned upstream of a luciferase gene in the plasmid pGL4 (Promega) (Weston, Chandraratna et al. 2002). Changes in luciferase levels in transfected cultures is used as a read-out of SOX9 activity. The anti-SOX9 SiRNA previously used (or astrocytes from the SOX9 conditional knock out) is used as a positive control and the scrambled siRNA is used as a negative control for this screen. The screen is used to identify compounds that reduce the levels of luciferase activity relative to control wells. […]
Specifically, primary astrocytes obtained from newborn rats were cultured in 6-well dishes for 6 weeks in Advanced-DMEM with 10% FBS. […] Transfection efficiency was calculated by co-transfection with a control plasmid. […] Twenty-four hours after the TGF-β2 application the cells were lysed and luciferase activity was measured using the Luciferase Assay System (PROMEGA) (according to the manufacturer's protocol) and a luminometer.

[5] = SOX9 knock-down in primary astrocytes
[6] = TGFβ2-treated primary astrocytes
[7] = primary astrocytes, 12 hours after transfection, siRNA 150 pM
[8] = TGFβ2 treatment alone, primary astrocytes

Substance	CSPG protein expression [2]	XT-II mRNA [3]	SOX9 mRNA levels [3]	Fibronectin expression [3]	Laminin expression [3]	also measured
AAAGUUGUCGCUCCCACUGAAGUUU (listed as RNA, chemistry not given here) [anti-SOX9 siRNA, small interfering RNA against SOX9, used at 150 pM in primary astrocytes]						fibronectin gene expression (SOX9 [1]; [5]): did not decrease; laminin gene expression (SOX9 [1]; [5]): did not decrease; reduction in SOX9 mRNA levels (SOX9 [1]; [6]): 87±13%; reduction in XT-I mRNA (SOX9 [1]; [6]): 68±6.4%; reduction in SOX9 mRNA levels (SOX9 [1]; [7]): 75±12%; reduction in XT-I mRNA (SOX9 [1]; [7]): 71±5.5%
IL-6: cytokine (R and D systems) used to treat primary astrocytes	increased expression	strong, concentration-dependent up-regulation	significant increase	similarly increased	similarly increased	
PDGF	increased expression	strong, concentration-dependent up-regulation	significant increase	similarly increased	similarly increased	
TGFβ2: cytokine (R and D systems) used to treat primary astrocytes	increased expression	strong, concentration-dependent up-regulation	significant increase	similarly increased	similarly increased	luciferase activity (SOX9 [4]; SOX9 luciferase reporter construct following treatment (FIG. 10)): increased; increase in luciferase activity (SOX9 [4]; TGF-β2 final concentration 10 nM, 24 hours, primary astrocytes from newborn rats cultured 6 weeks): ~2 fold; SOX9 mRNA levels (SOX9 [1]; [8]): increased; XT-1 mRNA levels (SOX9 [1]; [8]): increased
bFGF: cytokine (Invitrogen) used to treat primary astrocytes		no effect				
